Experimental findings from patent publication US7629156B2, “Ethanol production in fermentation of mixed sugars containing xylose” (E.I. du Pont de Nemours and Company, priority 2006, dated 2009) are described below.

Holding throughout (assay type): cell-based, Zymomonas mobilis
In experiment [1] the test system is ZW658 strain. The experiment in a line: 1-liter fermentor, ZW658 on glucose and xylose in the presence of sorbitol and acetate. To be noted: 5.8 g/L acetate, 10 mM sorbitol. The method, then: (§1) Approximately 1 ml of well mixed sample was obtained from flask or fermentor. First the sample absorbance was measured directly with a spectrophotometer (Amersham Biosciences Ultrospec 3300pro, GE Healthcare, Piscataway, N.J., USA). If the reading was lower than 0.6 unit, no dilution was needed. If the reading was higher than 0.6 unit, the sample was diluted with culture medium until the actual reading was in the range of 0.1 to 0.6 unit. The original OD was calculated from the dilution ratio and the actual reading.
(§2) The analysis of sugars, acetate, ethanol, and other by-products was done with an Agilent 1100 series HPLC and Agilent ChemStation software for LC 3D. The column was BioRad Aminex HPX-87H(HPLC Organic Analysis Column 125-0140) with BioRad Micro-Guard Cartridge Cation-H (125-0129). The operating conditions were:
(§3) Glycerol stock of seed frozen at −80° C. was thawed, then inoculated into sterile culture tubes with mixture of 60 g/L glucose, 20 g/L xylose, 10 g/L yeast extract (YE), 10 g/L KH2PO4, 2 g/L (NH4)2SO4, and 1 g/L MgSO4. Initial pH was adjusted to 5.5 with 4 N KOH. This revival culture was grown statically overnight at 37° C. It was transferred into shake flasks with 75 g/L glucose, 25 g/L xylose, 10 g/L yeast extract (YE), 10 g/L KH2PO4, 2 g/L (NH4)2SO4, and 1 g/L MgSO4. Initial pH was adjusted to 5.5 with 4 N KOH. Growth was monitored by measuring OD600. When the OD reached approximately 5, a certain volume of the seed was withdrawn into a sterile syringe for inoculation.
In a sterilized 1-liter fermentor (BIOSTAT® B-DCU system, Sartorius BBI System Inc., Bethlehem, Pa., USA), 50 ml of ZW658 strain seed culture at OD600 of approximately 5 was inoculated into 450 ml of aqueous solution containing sugars and medium. The final mixed broth contained 99.0 g/L glucose, 82.7 g/L xylose, 5.8 g/L acetate (in the form of potassium acetate), 10 g/L yeast extract (YE), 2 g/L KH2PO4, and 10 mM sorbitol. pH was adjusted to 5.5 with 4 N KOH solution. Mixing speed was set at 150 rpm. Fermentation was conducted at 33° C. and pH 5.5. Samples were taken periodically. Samples were filtered through 0.22 micron filters, and the filtrates were analyzed by HPLC as described in General Methods for compounds including glucose, xylose, ethanol, and acetate. Samples were also diluted with medium (as described in General Methods) and the OD600 was measured to monitor cell growth.

The subject of experiment [2] is ZW658 strain. Put plainly: Flask fermentation of ZW658 on glucose and xylose with sorbitol 10-200 mM. The method, then:
as §1, §2, §3
In five sterilized 125 ml Erlenmeyer culture flasks (Cat. No. 30180-036, VWR International, USA), 10 ml of ZW658 strain seed culture at Optical Density of approximately 5 (measured at 600 nm; OD600) was inoculated into each flask with 100 ml of aqueous solution containing 110 g/L glucose, 90 g/L xylose, 10 g/L yeast extract (YE), 2 g/L KH2PO4, 4 g/L KHCO3, and various concentrations of sorbitol (10, 20, 50, 100, and 200 mM). Initial pH was adjusted to 5.5 with 4 NH3PO4 solution. Mixing speed was set at 150 rpm. Fermentation was conducted at 33° C. and pH was not controlled. Samples were taken periodically. Samples were filtered through 0.22 micron filters, and the filtrates were analyzed by HPLC as described in General Methods for ethanol. Samples were diluted with medium (as described in General Methods) and the OD600 was measured to monitor cell growth. […] After 24 hours, the OD600 were 7.74, 7.86, 8.04, 7.82, and 7.12, respectively, for sorbitol concentrations of 10, 20, 50, 100, and 200 mM. After 48 hours, the OD600 were 8.30, 8.26, 8.84, 8.12, and 7.72, respectively, for sorbitol concentrations of 10, 20, 50, 100, and 200 mM. […] Ethanol production was slightly slower with 100 or 200 mM sorbitol than with 10, 20, or 50 mM sorbitol, although all cultures reached about the same final amount of ethanol produced. […] Thus 10 mM sorbitol is adequate to provide maximal ethanol production under these conditions.

The subject of experiment [3] is ZW658 strain. The experiment in a line: Flask fermentation of ZW658 on glucose and xylose with acetate and various polyols. The note with it: 10 mM polyol, 3 g/L acetate. The method, then: as §1, §2, §3
In five sterilized 125 ml Erlenmeyer culture flasks (Cat. No. 30180-036, VWR International, USA), 10 ml of ZW658 strain seed culture at OD600 of approximately 5 was inoculated into each flask with 100 ml of aqueous solution containing 100 g/L glucose, 80 g/L xylose, 3 g/L acetate, 10 g/L yeast extract (YE), 2 g/L KH2PO4, 1 g/L MgSO4.7H2O, and 4 g/L KHCO3, and 10 mM of the following polyols: erythritol, sorbitol, mannitol, maltitol, or lactitol; or 5 mM sorbitol plus 5 mM maltitol, or 5 mM sorbitol plus 5 mM lactitol. After inoculation, the total sugar concentration was about 160 g/L due to dilution by the seed culture. Initial pH was adjusted to 5.5 with 4 N H3PO4 solution. Mixing speed was set at 150 rpm. Fermentation was conducted at 33° C. and pH was not controlled. Samples were taken periodically. Samples were filtered through 0.22 micron filters, and the filtrates were analyzed by HPLC as described in General Methods for compounds including glucose, xylose, ethanol, and acetate. Samples were diluted with medium (as described in General Methods) and the OD600 was measured to monitor cell growth.

On to `OC[C@@H](O)[C@@H](O)[C@H](O)[C@@H](O)CO` [sorbitol], for which the “by product xylitol concentration” value in experiment [1] (after 63.75 hours (stationary phase)) was determined as 3.55 g/L. For the same compound, in experiment [1] (after 63.75 hours), the “OD600 cells grew to” value is given as 6.4. In experiment [1] (after 63.75 hours), the ethanol concentration stood at 70.0 g/L. For the same compound, in experiment [1] (after 63.75 hours), the xylose concentration came out at 29.6 g/L. The glucose concentration in experiment [1] (after 63.75 hours, 99.0 g/L glucose, 82.7 g/L xylose, 33° C., pH 5.5) amounted to 0 g/L. Moreover, the xylitol result in experiment [2] (10-200 mM sorbitol, any of the samples) is recorded as “No xylitol was detected”. In addition, the OD600 in experiment [2] (after 24 hours, 10 mM sorbitol, 110 g/L glucose, 90 g/L xylose) is listed as 7.74; in experiment [2] (after 24 hours, 20 mM sorbitol), 7.86; in experiment [2] (after 24 hours, 50 mM sorbitol), 8.04; in experiment [2] (after 24 hours, 100 mM sorbitol), 7.82; in experiment [2] (after 24 hours, 200 mM sorbitol), 7.12; in experiment [2] (after 48 hours, 10 mM sorbitol) it was 8.30. Further, the OD600 in experiment [2] (after 48 hours, 20 mM sorbitol) was determined as 8.26; in experiment [2] (after 48 hours, 50 mM sorbitol), 8.84; in experiment [2] (after 48 hours, 100 mM sorbitol), 8.12; in experiment [2] (after 48 hours, 200 mM sorbitol) it was 7.72; in experiment [3] (after 32 hours, total sugar about 160 g/L), 7.88. Further, in experiment [3], the ethanol production entry is given as “ethanol production was also better”. Moreover, the xylose utilization result in experiment [3] is reported as “More xylose was utilized”.
